Measured values from patent publication EP0643558B1, “SANITIZING COMPOSITIONS” (ECOLAB INC., priority 1991, dated 1992).

Key:
Assay type in all cases: cell-based
[1] = test system: Escherichia coli; assay: A.O.A.C. Sanitizing Test (Germicidal and Detergent Sanitizing Action of Disinfectants, para. 960.09); settings: use solutions, 0.1 wt-% fatty acid + 0.1 wt-% lactic acid (88% w/v) in distilled water, solution pH 2.96-2.97
From the text: (§1) A sanitizer is an agent that reduces the number of bacterial contaminants to safe levels as judged by public health requirements. Practically, a sanitizer must result in 99.999% reduction (5 log order reduction) for given organisms as defined by Germicidal and Detergent Sanitizing Action of Disinfectants, Official Methods of Analysis of the Association of Official Analytical Chemists, paragraph 960.09 and applicable sections, 15th Edition, 1990 (EPA Guideline 91-2). In common practice, substances that are applied to food contact surfaces for antimicrobial purposes must meet this requirement. It has now been discovered that a sanitizer comprising octanoic acid (C8) plus a food additive organic or inorganic acid buffer does indeed meet all of the criteria set forth for a food grade sanitizer. […] Table 1A is a summary of compositions and Table 1B is a summary of their bactericidal activity as determined by the official A.O.A.C. Sanitizing Test. (Germicidal and Detergent Sanitizing Action of Disinfectants, Official Methods of Analysis of the Association of Official Analytical Chemists, paragraph 960.09 and applicable sections, 15th Edition, 1990, EPA guideline 91-2). The octanoic acid is indeed very unique, peaking out at seven log order reductions with both a gram positive (Staphylococcus aureus) and a gram negative (Escherichia coli) bacteria and passes the test requirement for a sanitizing agent. […] Examples IA through IE represent use solutions of the sanitizers.

[2] = test system: Staphylococcus aureus; assay: as above; settings: use solutions, 0.1 wt-% fatty acid + 0.1 wt-% lactic acid (88% w/v) in distilled water, solution pH 2.96-2.97
From the text: as §1

[3] = test system: Aspergillus niger; assay: Fungicidal activity, A.O.A.C. Disinfection Test Method; settings: spores of Aspergillus niger, compared with the other test organisms of Table 5B
From the text: A disinfectant is an agent that kills all vegetative cells including most recognized pathogenic microorganisms. As such, it must pass a more stringent bactericidal test; the A.O.A.C. Use Dilution Methods, Official Methods of Analysis of the Association of Official Analytical Chemists, paragraph 955.14 and applicable sections, 15th Edition, 1990 (EPA Guideline 91-2). […] Disinfection Test Method. […]

Structure (SMILES) | Results Log Reductions Col. Forming Units E. coli [1] | Results Log Reductions Col. Forming Units S. aureus [2] | concentration for complete kill [3]
CCCCCCCCCC(=O)O [decanoic acid, reference compound] | possesses some activity | possesses some activity | 
CCCCCCCC(=O)O [octanoic acid, Octanoic acid] | seven | seven | required a higher concentration for complete kill
